# Assay results published in patent US20260042731A1, “(2,4-DICHLOROPHENOXY)ACETIC ACID ANALOGS” (CORTEVA AGRISCIENCE LLC, priority 2022, published 2026).
# Values joined by “and” are separate entries in the source; they are usually repeats but may differ in a detail not shown here. Equal entries are not always repeated. Where two headings read alike, the source gives them in different places.
# Legend:
# [1] = tested on: Ambrosia artemisiifolia (AMBEL), common ragweed; test: Postemergence herbicide evaluation, growth of Ambrosia artemisiifolia (AMBEL); assay type: in vivo; details: Ambrosia artemisiifolia, post-emergence, percent reduction in plant size vs untreated control, read-out: AVE. AMBEL; for pest or weed control at 280 g/ha: 280 g ae/ha; for pest or weed control at 560 g/ha: 560 g ae/ha
# [2] = tested on: weeds ABUTH, AMATA, AMBEL, CHEAL, ERICA; test: Postemergence herbicide evaluation, overall average % weed control across ABUTH, AMATA, AMBEL, CHEAL and ERICA; assay type: in vivo; details: post-emergence, average over five weeds, read-out: Overall Ave % Weed Control; for pest or weed control at 280 g/ha: 280 g ae/ha; for pest or weed control at 560 g/ha: 560 g ae/ha
# [3] = tested on: glyphosate resistant Conyza canadensis (L.) (ERICA), horseweed; test: Postemergence herbicide evaluation, growth of Conyza canadensis (ERICA); assay type: in vivo; details: Erigeron canadensis, post-emergence, percent reduction in plant size vs untreated control, read-out: Ave. ERICA; for pest or weed control at 280 g/ha: 280 g ae/ha; for pest or weed control at 560 g/ha: 560 g ae/ha
# [4] = Volatility of compounds measured by thermogravimetric analysis (TGA); assay type: physicochemical
# [5] = tested on: Amaranthus rudis (AMATA), tall water hemp; test: Postemergence herbicide evaluation, growth of Amaranthus rudis (AMATA); assay type: in vivo; details: Amaranthus tuberculatus, post-emergence, percent reduction in plant size vs untreated control, read-out: Ave. AMATA; for pest or weed control at 280 g/ha: 280 g ae/ha; for pest or weed control at 560 g/ha: 560 g ae/ha
# [6] = tested on: Abutilon theophrasti (ABUTH), velvetleaf; test: Postemergence herbicide evaluation, growth of Abutilon theophrasti (ABUTH); assay type: in vivo; details: Abutilon theophrasti, post-emergence, percent reduction in plant size vs untreated control, read-out: AVE. ABUTH; for pest or weed control at 280 g/ha: 280 g ae/ha; for pest or weed control at 560 g/ha: 560 g ae/ha
# [7] = tested on: Chenopodium album (CHEAL), common lambsquarters; test: Postemergence herbicide evaluation, growth of Chenopodium album (CHEAL); assay type: in vivo; details: Chenopodium album, post-emergence, percent reduction in plant size vs untreated control, read-out: Ave. CHEAL; for pest or weed control at 280 g/ha: 280 g ae/ha; for pest or weed control at 560 g/ha: 560 g ae/ha
# [8] = value marked *: decomposition of the material was observed
compound,measurement,setting,value
O=C(COc1ccc(Cl)cc1Cl)ONC(=O)C1CCCC1 [Compound A20],pest or weed control at 280 g/ha,"[1]; 168 h, 7 DAA",72.5%
same,pest or weed control at 560 g/ha,"[1]; 168 h, 7 DAA",85%
same,pest or weed control at 280 g/ha,"[1]; 336 h, 14 DAA",100%
same,pest or weed control at 560 g/ha,"[1]; 336 h, 14 DAA",85%
same,pest or weed control at 280 g/ha,"[1]; 504 h, 21 DAA",100%
same,pest or weed control at 560 g/ha,"[1]; 504 h, 21 DAA",100%
same,pest or weed control at 280 g/ha,"[2]; 168 h, 7 DAA",75.3%
same,pest or weed control at 560 g/ha,"[2]; 168 h, 7 DAA",84.5%
same,pest or weed control at 280 g/ha,"[2]; 336 h, 14 DAA",93.1%
same,pest or weed control at 560 g/ha,"[2]; 336 h, 14 DAA",92.4%
same,pest or weed control at 280 g/ha,"[2]; 504 h, 21 DAA",97.5%
same,pest or weed control at 560 g/ha,"[2]; 504 h, 21 DAA",95.7%
same,pest or weed control at 280 g/ha,"[3]; 168 h, 7 DAA",75%
same,pest or weed control at 560 g/ha,"[3]; 168 h, 7 DAA",80%
same,pest or weed control at 280 g/ha,"[3]; 336 h, 14 DAA",98.5%
same,pest or weed control at 560 g/ha,"[3]; 336 h, 14 DAA",94.5%
same,pest or weed control at 280 g/ha,"[3]; 504 h, 21 DAA",100%
same,pest or weed control at 560 g/ha,"[3]; 504 h, 21 DAA",100%
same,"TGA Data (rate of weight loss, volatility)",[4],1.83 µg/min
same,"TGA Data (rate of weight loss, volatility)",[4]; [8],2.946* μg/min and 1.83* μg/min
same,pest or weed control at 280 g/ha,"[5]; 168 h, 7 DAA",91.5%
same,pest or weed control at 560 g/ha,"[5]; 168 h, 7 DAA",92.5%
same,pest or weed control at 280 g/ha,"[5]; 336 h, 14 DAA",90%
same,pest or weed control at 560 g/ha,"[5]; 336 h, 14 DAA",90%
same,pest or weed control at 280 g/ha,"[5]; 504 h, 21 DAA",100%
same,pest or weed control at 560 g/ha,"[5]; 504 h, 21 DAA",82.5%
same,pest or weed control at 280 g/ha,"[6]; 168 h, 7 DAA",60%
same,pest or weed control at 560 g/ha,"[6]; 168 h, 7 DAA",87.5%
same,pest or weed control at 280 g/ha,"[6]; 336 h, 14 DAA",79%
same,pest or weed control at 560 g/ha,"[6]; 336 h, 14 DAA",100%
same,pest or weed control at 280 g/ha,"[6]; 504 h, 21 DAA",92.5%
same,pest or weed control at 560 g/ha,"[6]; 504 h, 21 DAA",100%
same,pest or weed control at 280 g/ha,"[7]; 168 h, 7 DAA",77.5%
same,pest or weed control at 560 g/ha,"[7]; 168 h, 7 DAA",77.5%
same,pest or weed control at 280 g/ha,"[7]; 336 h, 14 DAA",98%
same,pest or weed control at 560 g/ha,"[7]; 336 h, 14 DAA",92.5%
same,pest or weed control at 280 g/ha,"[7]; 504 h, 21 DAA",95%
same,pest or weed control at 560 g/ha,"[7]; 504 h, 21 DAA",96%
CCN(CC)OC(=O)COc1ccc(Cl)cc1Cl [Compound A21],pest or weed control at 280 g/ha,"[1]; 168 h, 7 DAA",70%
same,pest or weed control at 560 g/ha,"[1]; 168 h, 7 DAA",70%
same,pest or weed control at 280 g/ha,"[1]; 336 h, 14 DAA",80%
same,pest or weed control at 560 g/ha,"[1]; 336 h, 14 DAA",98%
same,pest or weed control at 280 g/ha,"[1]; 504 h, 21 DAA",100%
same,pest or weed control at 560 g/ha,"[1]; 504 h, 21 DAA",100%
same,pest or weed control at 280 g/ha,"[2]; 168 h, 7 DAA",74.5%
same,pest or weed control at 560 g/ha,"[2]; 168 h, 7 DAA",81.5%
same,pest or weed control at 280 g/ha,"[2]; 336 h, 14 DAA",84.4%
same,pest or weed control at 560 g/ha,"[2]; 336 h, 14 DAA",94.1%
same,pest or weed control at 280 g/ha,"[2]; 504 h, 21 DAA",93%
same,pest or weed control at 560 g/ha,"[2]; 504 h, 21 DAA",99.7%
same,pest or weed control at 280 g/ha,"[3]; 168 h, 7 DAA",85%
same,pest or weed control at 560 g/ha,"[3]; 168 h, 7 DAA",82.5%
same,pest or weed control at 280 g/ha,"[3]; 336 h, 14 DAA",92%
same,pest or weed control at 560 g/ha,"[3]; 336 h, 14 DAA",94%
same,pest or weed control at 280 g/ha,"[3]; 504 h, 21 DAA",97.5%
same,pest or weed control at 560 g/ha,"[3]; 504 h, 21 DAA",100%
same,"TGA Data (rate of weight loss, volatility)",[4]; [8],1.352* μg/min
same,pest or weed control at 280 g/ha,"[5]; 168 h, 7 DAA",80%
same,pest or weed control at 560 g/ha,"[5]; 168 h, 7 DAA",85%
same,pest or weed control at 280 g/ha,"[5]; 336 h, 14 DAA",90%
same,pest or weed control at 560 g/ha,"[5]; 336 h, 14 DAA",87.5%
same,pest or weed control at 280 g/ha,"[5]; 504 h, 21 DAA",80%
same,pest or weed control at 560 g/ha,"[5]; 504 h, 21 DAA",100%
same,pest or weed control at 280 g/ha,"[6]; 168 h, 7 DAA",60%
same,pest or weed control at 560 g/ha,"[6]; 168 h, 7 DAA",87.5%
same,pest or weed control at 280 g/ha,"[6]; 336 h, 14 DAA",67.5%
same,pest or weed control at 560 g/ha,"[6]; 336 h, 14 DAA",94.5%
same,pest or weed control at 280 g/ha,"[6]; 504 h, 21 DAA",90%
same,pest or weed control at 560 g/ha,"[6]; 504 h, 21 DAA",99.5%
same,pest or weed control at 280 g/ha,"[7]; 168 h, 7 DAA",77.5%
same,pest or weed control at 560 g/ha,"[7]; 168 h, 7 DAA",82.5%
same,pest or weed control at 280 g/ha,"[7]; 336 h, 14 DAA",92.5%
same,pest or weed control at 560 g/ha,"[7]; 336 h, 14 DAA",96.5%
same,pest or weed control at 280 g/ha,"[7]; 504 h, 21 DAA",97.5%
same,pest or weed control at 560 g/ha,"[7]; 504 h, 21 DAA",99%
